From PubChem BioAssay AID2060882 (Molecular Pharmacology Branch, DTP, NCI, 2025)

Tested on: 898857-211-R-J1-PDC complex spheroids, growth % test/control
Assay: Anticancer human tumor 898857-211-R-J1-PDC patient-derived melanoma cell line growth inhibition [RAS]
Conditions: for IC50: curve of first compound; for viability, T/C: stronger effect = lower value
Description: RAS pathway inhibitors in Combinations in Complex Spheroids
A high-throughput screen of multi-cell type tumor spheroids was designed to identify active combinations of RAS pathway inhibitors and targeted small molecules. Complex spheroids include a stromal component modeled by human endothelial cells (HUVEC) and fibroblasts modeled by human mesenchymal stem cells (MSCs). The concentration ranges selected for each drug and investigational agent were based upon clinically achievable concentrations if the clinical Cmax of the agent was known.
Compounds. The drugs and investigational agents: abemaciclib (NSC768073), cobimetinib (NSC768068), divarasib (GDC6063, NSC841802), docetaxel (NSC628503), GDC-1971 (RLY-1971, NSC841576), gemcitabine (NSC613327), inavolisib (NSC800729), ipatasertib (NSC767898), KB-0742 (NSC834161), MRTX-1133 (NSC836407), osimertinib (NSC779217), RMC-4630 (NSC839698), RMC-6236 (NSC851965), RMC-6291 (NSC852671), Ro-3306 (NSC812927), sapanisertib (NSC764658), SN-38 (NSC673596), staurosporine (NSC755774), SY5609 (NSC837396), and tovorafenib (DAY101, NSC766906), were obtained from the National Cancer Institute (NCI) Developmental Therapeutics Program Chemical Repository. The FDA-approved anticancer drug set is available from the NCI Developmental Therapeutics Program. […] The stock solutions were prepared in dimethyl sulfoxide (DMSO, Sigma-Aldrich, St. Louis, MO, cat. D2650) at 800-fold the tested concentration and stored at -70 degrees C prior to their use. All drugs and investigational agents were tested over a range starting from a high concentration at or near the clinical Cmax and decreasing in half-log increments. If the clinical Cmax for an agent had not been determined, the highest concentration tested was 10 microM.
Cell Culture. All cells were maintained in an incubator at 37 degrees C and 5% CO2 with 95% humidity. The PDC lines were cultured according to standard operating procedures established by the NCI PDMR. All PDCs were thawed and cultured in Matrigel-coated flasks prepared with a working solution of 1X Ham's F-12 nutrient mix, without supplementation (Invitrogen, Waltham, MA, cat. 11765054), 100 U/mL penicillin-streptomycin (Invitrogen, cat. 15140122), and 2.5% Matrigel (Corning Inc., Corning, NY, cat. 354248) for the first three passages. The 362531-283-R-J2-PDC and 782815-120-R-J1-PDC lines were cultured in 6C/Colon 1B media, which includes advanced DMEM/F-12 (Thermo Fisher Scientific, cat. 12634028), 10 mM HEPES (Thermo Fisher Scientific, cat. 15630080), 1X GlutaMAX supplement (Thermo Fisher Scientific, cat. 35050061), 0.1 mg/mL primocin (InvivoGen, San Diego, CA, cat. ant-pm-2), 10% defined fetal bovine serum, heat inactivated (HyClone Laboratories Inc., Logan, UT, cat. SH30070.03HI), 50% L-WRN conditioned media (ATCC, cat. CRL-3276), 1.25 mM N-Acetyl-L-cysteine (Sigma-Aldrich, cat. A9165), 10 mM nicotinamide (Sigma-Aldrich, cat. N0636), 1X B-27 supplement (Thermo Fisher Scientific, cat. 17504044), 1X N-2 supplement (Thermo Fisher Scientific, cat. 17502048), 50 ng/mL human EGF (Thermo Fisher Scientific, cat. PHG0311), and 10 microM Y-27632 dihydrochloride (Tocris Bioscience, cat. 1254). The K12877-001-R-J1-PDC line was cultured in 6I media, which includes all 6C/Colon 1B media plus 10 ng/mL human FGF-10 (PeproTech, cat. 100-26), 1 ng/mL human FGF-2 (PeproTech, cat. 100-18B), 1 µM prostaglandin E2 (Tocris Bioscience, cat. 2296), […] hydrocortisone (Sigma-Aldrich, cat. H4001), and […] bovine insulin (Sigma-Aldrich, cat. I6634). The K86415-001-R-J1-PDC line was cultured in 6D media, which includes all 6C/Colon 1B media components minus the L-WRN conditioned media. The 485176-168-R4-J1-PDC was cultured in PANC media, which includes all 6C/Colon 1B media plus 100 ng/mL human FGF-10 (PeproTech, cat. 100-26), 500 nM SB-431542 (Selleckchem, cat. S1067), and 10 nM gastrin (Tocris Bioscience, cat. 3006). […]
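Also: spheroids exposed to compound for seven days before readout.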
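For viability, T/C in this document: 100% = DMSO vehicle control wells.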

`CC(C)n1nc(-c2ccc3oc(N)nc3c2)c2c(N)ncnc21` + C#Cc1c(F)ccc2cc(O)cc(-c3ncc4c(N5CC6CCC(C5)N6)nc(OCC56CCCN5CC(F)C6)nc4c3F)c12 showed an IC50 (second compound 0.0316 µM) of 32.6 nM, an IC50 (second compound 0.1 µM) of 38.2 nM and an IC50 (second compound 0.316 µM) of 37.7 nM. The IC50 (second compound 1 µM) was 37.3 nM, the IC50 (second compound 3.16 µM) was 39.6 nM and the IC50 (second compound 10 µM) was 1.06 nM. For the same compound, the viability, T/C (second compound 0.0316 µM, first compound 0.000316 µM) was 108%, the viability, T/C (second compound 0.0316 µM, first compound 0.001 µM) was 92.3% and the viability, T/C (second compound 0.0316 µM, first compound 0.00316 µM) was 101%. The viability, T/C (second compound 0.0316 µM, first compound 0.01 µM) was 81.8%, the viability, T/C (second compound 0.0316 µM, first compound 0.0316 µM) was 50.9% and the viability, T/C (second compound 0.0316 µM, first compound 0.1 µM) was 24%. It also gave a viability, T/C (second compound 0.1 µM, first compound 0.000316 µM) of 115%, a viability, T/C (second compound 0.1 µM, first compound 0.001 µM) of 99.8% and a viability, T/C (second compound 0.1 µM, first compound 0.00316 µM) of 100%. For the same compound, the viability, T/C (second compound 0.1 µM, first compound 0.01 µM) was 79.5%, the viability, T/C (second compound 0.1 µM, first compound 0.0316 µM) was 54.4% and the viability, T/C (second compound 0.1 µM, first compound 0.1 µM) was 24.5%. It also gave a viability, T/C (second compound 0.316 µM, first compound 0.000316 µM) of 112%, a viability, T/C (second compound 0.316 µM, first compound 0.001 µM) of 113% and a viability, T/C (second compound 0.316 µM, first compound 0.00316 µM) of 99.2%. The viability, T/C (second compound 0.316 µM, first compound 0.01 µM) was 78.9%, the viability, T/C (second compound 0.316 µM, first compound 0.0316 µM) was 55.6% and the viability, T/C (second compound 0.316 µM, first compound 0.1 µM) was 26.6%. It also gave a viability, T/C (second compound 1 µM, first compound 0.000316 µM) of 110%, a viability, T/C (second compound 1 µM, first compound 0.001 µM) of 103% and a viability, T/C (second compound 1 µM, first compound 0.00316 µM) of 107%. For the same compound, the viability, T/C (second compound 1 µM, first compound 0.01 µM) was 81.4%, the viability, T/C (second compound 1 µM, first compound 0.0316 µM) was 55.8% and the viability, T/C (second compound 1 µM, first compound 0.1 µM) was 23.5%. It also gave a viability, T/C (second compound 3.16 µM, first compound 0.000316 µM) of 122%, a viability, T/C (second compound 3.16 µM, first compound 0.001 µM) of 114% and a viability, T/C (second compound 3.16 µM, first compound 0.00316 µM) of 102%. For the same compound, the viability, T/C (second compound 3.16 µM, first compound 0.01 µM) was 84.4%, the viability, T/C (second compound 3.16 µM, first compound 0.0316 µM) was 55.8% and the viability, T/C (second compound 3.16 µM, first compound 0.1 µM) was 23.8%. It also gave a viability, T/C (second compound 10 µM, first compound 0.000316 µM) of 57.5%, a viability, T/C (second compound 10 µM, first compound 0.001 µM) of 47.7% and a viability, T/C (second compound 10 µM, first compound 0.00316 µM) of 46.7%. For the same compound, the viability, T/C (second compound 10 µM, first compound 0.01 µM) was 29.9%, the viability, T/C (second compound 10 µM, first compound 0.0316 µM) was 24.4% and the viability, T/C (second compound 10 µM, first compound 0.1 µM) was 10.4%.
